The text below walks through data of PubChem BioAssay (NCI).

Among the test systems are HCT-15 colon; CAKI-1 renal; 786-0 renal; U251 CNS; SW-620 colon; BT-549 breast; KM12 colon; NCI-H460 lung; HOP-62 NSCLC; A498 renal; COLO 205 colon; NCI-H23 lung; ACHN renal; HL-60(TB) leukemia; TK-10 renal; HOP-92 NSCLC; SF-539 CNS; T-47D breast; SR leukemia.
Assay in all cases: NCI tumour cell line growth inhibition, 48 h

SMILES strings stand for the structures.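 Results reflect a 48-hour exposure of cells in 96-well plates to compound at five concentrations. TGI: concentration producing complete growth inhibition.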

For the molecule `CC1CC(N2CCOCC2)=Nc2ccccc2N1Cc1ccccc1` (configuration not stated), the TGI in the assay with HCT-15 colon, in the assay with CAKI-1 renal, in the assay with 786-0 renal, in the assay with U251 CNS, with SW-620 colon and in the assay with BT-549 breast was over 100 µM each time. The TGI is over 100 µM in the assay with KM12 colon; over 100 µM in the assay on NCI-H460 lung; over 100 µM in the assay with HOP-62 NSCLC; 52.3 µM in the assay on A498 renal; over 100 µM with COLO 205 colon; over 100 µM in the assay on NCI-H23 lung. The TGI with ACHN renal, in the assay with HL-60(TB) leukemia and in the assay with TK-10 renal was over 100 µM in each case.
With `Cc1nnc(N/N=C(/C(=O)C(C#N)c2ccc(Cl)cc2)C(C#N)c2ccc(Cl)cc2)n1N` (configuration not stated), the TGI in the assay with HCT-15 colon was 49.4 µM; in the assay with CAKI-1 renal it was 43.1 µM; with 786-0 renal, 31.5 µM; in the assay on SW-620 colon, 37.3 µM; in the assay with KM12 colon, 39.8 µM; in the assay with NCI-H460 lung, 39.3 µM. The TGI was determined as 30.3 µM with HOP-62 NSCLC; 32.5 µM in the assay on COLO 205 colon; 35.3 µM in the assay on NCI-H23 lung; 30.8 µM in the assay with ACHN renal; 55.4 µM in the assay on HL-60(TB) leukemia; 34.7 µM with TK-10 renal. Further, the TGI in the assay on HOP-92 NSCLC is over 100 µM.
On to `NC(=O)c1sc2nc3ccccc3n2c1N`, for which the TGI in the assay on HCT-15 colon was over 100 µM; with CAKI-1 renal, over 100 µM; with 786-0 renal, over 100 µM; in the assay with U251 CNS it was 87.4 µM; in the assay on SF-539 CNS, 45.9 µM; in the assay with SW-620 colon it was over 100 µM. For the same molecule, the TGI with BT-549 breast was 76.8 µM; in the assay with HOP-62 NSCLC, over 100 µM; in the assay on A498 renal, over 100 µM; in the assay on COLO 205 colon, over 100 µM; in the assay on NCI-H23 lung, 41.4 µM; with ACHN renal, over 100 µM. The TGI with HL-60(TB) leukemia, in the assay on T-47D breast, with TK-10 renal and with HOP-92 NSCLC was over 100 µM each time.
As for `C[C@H]1C[C@H]2[C@@H]3CCC4=CC(=O)C=C[C@]4(C)C3=CC[C@]2(C)[C@@]1(O)C(=O)CO`, the TGI in the assay with HCT-15 colon, in the assay with CAKI-1 renal, with 786-0 renal, in the assay with U251 CNS, with SR leukemia and in the assay on KM12 colon was over 100 µM throughout. In addition, the TGI in the assay with NCI-H460 lung, in the assay on HOP-62 NSCLC, in the assay with A498 renal, in the assay on COLO 205 colon, in the assay with NCI-H23 lung and with ACHN renal was over 100 µM in each case. Besides, the TGI in the assay with HL-60(TB) leukemia, in the assay on T-47D breast, with TK-10 renal and in the assay with HOP-92 NSCLC was over 100 µM throughout.
For the molecule `Nc1ccc(-c2nc3ccc(F)cc3s2)cc1I`, the TGI in the assay with HCT-15 colon, in the assay with CAKI-1 renal, in the assay on 786-0 renal, in the assay on U251 CNS, in the assay on SF-539 CNS and with SW-620 colon was over 100 µM throughout. Further, the TGI in the assay with SR leukemia, in the assay on BT-549 breast, in the assay on KM12 colon, in the assay with NCI-H460 lung, in the assay on HOP-62 NSCLC and with A498 renal was over 100 µM in each case. The TGI in the assay on COLO 205 colon, with NCI-H23 lung, in the assay on ACHN renal and in the assay on HOP-92 NSCLC was over 100 µM throughout.
Take `Cc1ccc(S(=O)(=O)NC(=O)Nc2cc(Cl)c(S(N)(=O)=O)cc2S(N)(=O)=O)cc1`: the TGI with HCT-15 colon, in the assay on CAKI-1 renal, with 786-0 renal, in the assay with U251 CNS, with SF-539 CNS and in the assay on SW-620 colon was over 100 µM in each case. Besides, the TGI in the assay on BT-549 breast, in the assay with KM12 colon, in the assay with HOP-62 NSCLC, in the assay on COLO 205 colon, with NCI-H23 lung and in the assay on HL-60(TB) leukemia was over 100 µM in each case. Further, the TGI with TK-10 renal and with HOP-92 NSCLC was over 100 µM in each case.
Regarding `CCOC(=O)/C=C/C1(CCOC(C)=O)CCCCC1`, the TGI with HCT-15 colon, in the assay on CAKI-1 renal, in the assay on 786-0 renal, in the assay with U251 CNS, with SF-539 CNS and with SW-620 colon was over 10 µM each time. Also, the TGI with SR leukemia, in the assay with KM12 colon, in the assay with NCI-H460 lung, with HOP-62 NSCLC, in the assay with COLO 205 colon and in the assay on NCI-H23 lung was over 10 µM throughout. For the same molecule, the TGI in the assay with ACHN renal, in the assay with HL-60(TB) leukemia, in the assay on T-47D breast, in the assay on TK-10 renal and in the assay with HOP-92 NSCLC was over 10 µM in each case.
As for `O=[N+]([O-])/C=C/c1cn(CCCCCCCCCCCCn2cc(/C=C/[N+](=O)[O-])c3ccccc32)c2ccccc12`, the TGI with HCT-15 colon, with CAKI-1 renal, in the assay on 786-0 renal, with U251 CNS, in the assay with SF-539 CNS and in the assay on SW-620 colon was over 100 µM each time. The TGI with SR leukemia, with BT-549 breast, in the assay with KM12 colon, with NCI-H460 lung, in the assay on HOP-62 NSCLC and in the assay on A498 renal was over 100 µM throughout. Besides, the TGI in the assay on COLO 205 colon, with NCI-H23 lung, in the assay with ACHN renal, in the assay with HL-60(TB) leukemia, in the assay on TK-10 renal and in the assay on HOP-92 NSCLC was over 100 µM each time.
As to `O=C(CC(=O)c1ccccc1)C(=O)Nc1ccc(Cl)cc1`, the TGI in the assay on HCT-15 colon is over 59.7 µM; in the assay on CAKI-1 renal, over 100 µM; in the assay with 786-0 renal it was over 100 µM; in the assay on U251 CNS, over 100 µM; in the assay with SF-539 CNS, over 100 µM; in the assay with SW-620 colon, over 60.2 µM. Also, the TGI was over 100 µM in the assay with SR leukemia; over 100 µM in the assay with KM12 colon; over 55.1 µM in the assay with NCI-H460 lung; over 100 µM in the assay on HOP-62 NSCLC; over 100 µM in the assay with A498 renal; over 66.1 µM in the assay with COLO 205 colon. In addition, the TGI in the assay on NCI-H23 lung, with ACHN renal, in the assay on HL-60(TB) leukemia, in the assay with TK-10 renal and with HOP-92 NSCLC was over 100 µM each time.
